In patent US10555987B2, “GHRH agonists for the treatment of ischemic disorders” (UNIVERSITY OF MIAMI, priority 2012, dated 2020):
Non-standard residues stand in square brackets, D forms with d. Residues, ends and D or L forms follow the SMILES beside them. *: point of attachment. Desaminotyrosyl = O=C(CCc1ccc(O)cc1)*; Agmatine = N=C(N)NCCCCN*; Nle = CCCC[C@H](N)C(=O)O; Orn = NCCC[C@H](N)C(=O)O; Abu = CC[C@H](N)C(=O)O

Columns and labels:
GHRH receptor [1] = molecular target: T1, GHRH receptor (Homo sapiens, UniProt Q02643); test: GHRH receptor binding, competition with 125I-labeled JV-1-42, human pituitary membrane homogenates (Table 5); design: Normal human pituitaries were purchased from the National Hormone and Peptide Program; tissue National Hormone and Peptide Program (A.F. Parlow, Harbor-UCLA Medical Center, Torrance, Calif.); host or cells: normal human pituitary, membrane fraction
T1 sequence (Q02643 23-423): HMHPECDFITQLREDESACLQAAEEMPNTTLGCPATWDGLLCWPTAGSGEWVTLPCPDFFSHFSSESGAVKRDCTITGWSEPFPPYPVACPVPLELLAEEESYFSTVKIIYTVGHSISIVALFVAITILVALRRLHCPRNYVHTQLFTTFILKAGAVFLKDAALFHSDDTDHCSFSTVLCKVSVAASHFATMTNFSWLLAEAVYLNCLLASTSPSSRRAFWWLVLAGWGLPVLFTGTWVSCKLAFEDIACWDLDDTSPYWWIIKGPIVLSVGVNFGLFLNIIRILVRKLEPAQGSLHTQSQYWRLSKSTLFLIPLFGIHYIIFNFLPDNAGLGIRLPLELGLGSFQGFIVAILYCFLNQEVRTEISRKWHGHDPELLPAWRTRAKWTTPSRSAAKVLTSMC
Procedure: Normal human pituitaries were purchased from the National Hormone and Peptide Program (A.F. Parlow, Los Angeles, County Harbor-UCLA Medical Center, Torrance, Calif.). Briefly, in competitive binding analysis, ^125I-labeled JV-1-42 ([…]) was displaced by GHRH agonists at 10^−6 to 10^−12 M.
The final binding affinities were expressed as IC50 values and were calculated by using the LIGAND PC computerized curve-fitting program of Munson and Rodbard as modified by McPherson.

GHRH receptor [2] = molecular target: T1, GHRH receptor; test: GHRH receptor binding, competition with 125I-labeled JV-1-42, human pituitary membrane homogenates (Table 7); design: Normal human pituitaries were purchased from the National Hormone and Peptide Program; tissue National Hormone and Peptide Program (A.F. Parlow, Harbor-UCLA Medical Center, Torrance, Calif.); host or cells: normal human pituitary, membrane fraction
Source text: Normal human pituitaries were purchased from the National Hormone and Peptide Program (A.F. Parlow, Los Angeles, County Harbor-UCLA Medical Center, Torrance, Calif.).

GH release = test: In vivo endocrine activity, GH release after subcutaneous administration (Table 9); details: rat; for GH releasing potency relative to JI-38 (=1): subcutaneous (s.c.) injection
Procedure: Subcutaneous Administration. Adult male rats were used and anesthetized with pentobarbital (6 mg/100 g, b.w.), by i.p. injection. […] Blood samples were taken from the jugular vein 5, 15 and/or 30 minutes after the injection. The blood samples were centrifuged, plasma was removed and the GH level was measured byELISA. The results are summarized in terms of potency in Table 9.

[3] = tested on: myocardial infarction (Fisher-344 rats); test: Hemodynamic analysis (pressure-volume loops), body and heart weight after MI, compared to JI-38 (Example 15, Table 16); format: in vivo, rat; design: key to ESP (End-Systolic Pressure) / EDP (End-Diastolic Pressure) / ESV (End-Systolic Volume) / PRSW (Preload Recruitable Stroke Work) / Ees (End-systolic Elastance) / dP/dt max (peak rate of the pressure rise) / dP/dt max_EDV / dP/dt min / TAU (relaxation time constant calculated by Weiss method) / SV (Stroke Volume) / CO (Cardiac Output) / SW (Stroke Work) / EF / Ea/Ees / Ea (arterial Elastance): ↓: downward arrow denotes lower than JI-38; ↑: upward arrow denotes greater than JI-38; =denotes same as JI-38; ⬇⬇: double arrow denotes greater effect; ⬆⬆: double arrow denotes greater effect; details: rat MI model, s.c. twice daily; pressure-volume loops; expressed in comparison to JI-38
Procedure: Rats were anesthetized by intramuscular injection of a mixture of ketamine (100 mg/kg), xylazine (20 mg/kg) and acepromazine (10 mg/kg). A 2-F micromanometer tipped catheter (SPR-838, Millar Instruments, Houston, Tex.) was inserted into the right carotid artery and advanced retrograde into the left ventricle. Measurements were calibrated by injecting a hypertonic saline (15%) bolus to determine extra-ventricular conductance; relative volume units were converted to actual volume using the cuvette calibration method. All analyses were performed using PVAN 3.0 software (Millar Instruments, Houston, Tex.).
(§1) Myocardial infarction (MI) was induced by permanent ligation of the left coronary artery in female 6-month-old Fisher-344 rats. Following experimental myocardial infarction (MI), rats were randomly assigned to receive either placebo, JI-38, or one of the following new analogs of GHRH: MR-30 l(P-21301), MR-303(P-21303), MR-356(P-20356), MR-502(25502), MR-350(P-20350), MR-36 l(P-20361), MR-367(P-20367), MR-403(P-27403), MR-404(P-27404), and MR-409(P-27409) (10 rats per each group). The GHRH peptide agonists were adminsistered starting 2 hours post-surgery, 1 week, 2 week, and 4 week intervals. All treatment was given subcutaneously twice daily. Cardiac performance was assessed by serial echocardiography and hemodynamic analysis derived from pressure-volume loops as described before.
The hemodynamic studies are shown in FIGS. 16-33 and the results are summarized in Table 16 (results were expressed in comparison to JI-38; downward arrow denotes lower than JI-38; upward arrow denotes greater than JI-38; =denotes same as JI-38; and double arrow denotes greater effect).

[4] = tested on: myocardial infarction (Fisher-344 rats); test: Serial echocardiography after MI, compared to JI-38 (Example 15, Table 15); format: in vivo, rat; design: key to LVEDD: Left Ventricular End Diastolic Diameter / LVESD: Left Ventricular End Systolic Diameter / VD: Ventricular Diastole / VS: Ventricular Systole / EF: Ejection Fraction / FS: Fraction Shortening: ↓: downward arrow denotes lower than JI-38; ↑: upward arrow denotes greater than JI-38; =denotes same as JI-38; ⬇⬇: double arrow denotes greater effect; ⬆⬆: double arrow denotes greater effect; details: in comparison to JI-38
Procedure: Echocardiographic measurements were obtained at baseline, 2 days, 1, 2 and 4 weeks. Echocardiographic assessments were performed in anesthetized rats (2% isoflurane inhalation) using a Vevo-770 echocardiogram (Visual Sonics Inc., Toronto, Ontario, Canada) equipped with a 17.5-MHz transducer. Cardiac dimensions: LV end diastolic (LVEDD), end systolic (LVESD) diameters and fractional shortening (FS) were recorded from M-mode images using averaged measurements from 3 to 5 consecutive cardiac cycles according to the American Society of Echocardiography. Ejection fraction (EF) was calculated from bi-dimensional long-axis parasternal views taken through the infarcted area. All images were analyzed using Vevo 770 3.0.0 software (Visual Sonics Inc., Toronto, Ontario, Canada).
as §1
The echocardiographic experiments are shown in FIGS. 10-15 and the results are summarized in Table 15 (results were expressed in comparison to JI-38; downward arrow denotes lower than JI-38; upward arrow denotes greater than JI-38; =denotes same as JI-38; and double arrow denotes greater effect).

CCCC[C@H](NC(=O)[C@@H](NC(=O)[C@H](CC(=O)O)NC(=O)[C@H](CCC(N)=O)NC(=O)[C@H](CC(C)C)NC(=O)[C@H](CC(C)C)NC(=O)[C@H](CCCN)NC(=O)[C@H](CCCNC(=N)N)NC(=O)[C@H](C)NC(=O)[C@H](CO)NC(=O)[C@H](CC(C)C)NC(=O)[C@H](CCC(N)=O)NC(=O)[C@H](CC)NC(=O)[C@H](CC(C)C)NC(=O)[C@@H](NC(=O)[C@H](CCCN)NC(=O)[C@H](CCCNC(=N)N)NC(=O)[C@H](Cc1ccc(O)cc1)NC(=O)[C@H](CO)NC(=O)[C@H](CCC(N)=O)NC(=O)[C@@H](NC(=O)[C@H](Cc1ccccc1)NC(=O)[C@@H](NC(=O)[C@H](C)NC(=O)[C@H](CC(=O)O)NC(=O)[C@@H](C)NC(=O)CCc1ccc(O)cc1)[C@@H](C)CC)[C@@H](C)O)C(C)C)[C@@H](C)CC)C(=O)N[C@@H](CC(=O)O)C(=O)NCCCCNC(=N)N [Peptide P-20350, [Dat^1, D-Ala^2, Gln^8, Orn^12, Abu^15, Orn^21, Nle^27, Asp^28, Agm^29]hGHRH(1-29) NH2] (Desaminotyrosyl-[dA]DAIFTQSYR[Orn]VL[Abu]QLSAR[Orn]LLQDI[Nle]D-Agmatine)
IC50 (GHRH receptor [1]; 125I-JV-1-42, human pituitary membranes, Table 5): 0.04 nM
Relative affinity (Binding potency) vs GHRH (GHRH receptor [1]; GHRH(1-29) = 1, Table 5): 101.5
Relative affinity (Binding potency) vs JI-38 (GHRH receptor [1]; JI-38 = 1, Table 5): 42.7
IC50 (GHRH receptor [2]; 125I-JV-1-42, human pituitary membranes, Table 7): 0.52 nM
Relative affinity (Binding potency) vs JI-38 (GHRH receptor [2]; JI-38 = 1, Table 7): 8.37
Stimulation of growth hormone levels after subcutaneous administration (in words) (GH release; s.c.): stimulated greater growth hormone levels than hGHRH or JI-38
GH releasing potency relative to JI-38 (=1) (GH release; 15 min after): 1.53
GH releasing potency relative to JI-38 (=1) (GH release; 30 min after): 1.17
CO (Cardiac Output) [3]: ↑
EDP (End-Diastolic Pressure) [3]: ↑
EF [3]: ↑
ESP (End-Systolic Pressure) [3]: ↑
ESV (End-Systolic Volume) [3]: =
Ea (arterial Elastance) [3]: =
Ea/Ees [3]: =
Ees (End-systolic Elastance) [3]: =
PRSW (Preload Recruitable Stroke Work) [3]: =
SV (Stroke Volume) [3]: =
SW (Stroke Work) [3]: ↓
TAU (relaxation time constant calculated by Weiss method) [3]: =
dP/dt max (peak rate of the pressure rise) [3]: =
dP/dt max_EDV [3]: =
dP/dt min [3]: =
EF: Ejection Fraction [4]: =
FS: Fraction Shortening [4]: =
LVEDD: Left Ventricular End Diastolic Diameter [4]: ↓
LVESD: Left Ventricular End Systolic Diameter [4]: =
VD: Ventricular Diastole [4]: =
VS: Ventricular Systole [4]: =
